Measured values as given in patent US11878973B2, “Bicyclic compounds and their uses” (NOVARTIS AG, priority 2021, dated 2024).

Legend:
[1] = test system: SW48 cells; experiment: Proliferation assay SW48 (CellTiterGlo, 96 hours); settings: Homo sapiens, SW48, read-out: Proliferation Assay SW48 (GI50)
Protocol: (§1) The WRN-knockdown insensitive colon carcinoma cell line DLD-1 (RRID: CVCL_0248) was obtained from the Korean Cell Line Bank (KCLB), and used to generate a derivative in which the endogenous WRN gene copies were knocked out by CRISPR-mediated editing using standard CRISPR methods. The resulting cell line, DLD1-WRN—KO, was used to assess potential off-target compound effects.
(§2) All cells were maintained at 37° C. in a humidified 5% CO2 incubator.
(§3) For data analysis, the assay background signal that was determined in wells containing medium, but no cells, was subtracted from all other data points prior to further calculations. The extent of growth inhibition and potential cell kill was assessed by comparing the ATP levels (measured using CellTiterGlo, Promega) in compound-treated cells with those present at the time of compound addition. […] 100%, 0% and −100% signify absence of growth inhibition, growth stasis, and complete cell kill, respectively. Compound concentrations leading to half-maximal growth inhibition (G150) and residual cell viability at the highest tested compound concentration (Data (cmax), expressed in percent) were routinely calculated. Data analysis can also be carried out using commercially available software designed to derive IC50 values using 4-parameter fits (e.g. GraphPad Prism, XL fit). The reported GI50 values are the geometrical means of at least 2 independent replicates.

[2] = test system: DLD1-WRN-KO cells; experiment: Proliferation assay DLD1-WRN-KO (CellTiterGlo, 96 hours; off-target effects); settings: Homo sapiens, read-out: Proliferation Assay DLD1-WRN-KO (GI50)
Protocol: as §1, §2, §3

[3] = biological target: WRN helicase (Homo sapiens (Human), UniProt Q14191); experiment: In vitro enzymatic activity assay on WRN helicase (DNA dependent ATPase assay, ADP-Glo); type: biochemical; settings: geometric means of at least 2 determinations; read-out: WRN ATPase Activity (IC50)
WRN helicase, sequence (Q14191 517-1238): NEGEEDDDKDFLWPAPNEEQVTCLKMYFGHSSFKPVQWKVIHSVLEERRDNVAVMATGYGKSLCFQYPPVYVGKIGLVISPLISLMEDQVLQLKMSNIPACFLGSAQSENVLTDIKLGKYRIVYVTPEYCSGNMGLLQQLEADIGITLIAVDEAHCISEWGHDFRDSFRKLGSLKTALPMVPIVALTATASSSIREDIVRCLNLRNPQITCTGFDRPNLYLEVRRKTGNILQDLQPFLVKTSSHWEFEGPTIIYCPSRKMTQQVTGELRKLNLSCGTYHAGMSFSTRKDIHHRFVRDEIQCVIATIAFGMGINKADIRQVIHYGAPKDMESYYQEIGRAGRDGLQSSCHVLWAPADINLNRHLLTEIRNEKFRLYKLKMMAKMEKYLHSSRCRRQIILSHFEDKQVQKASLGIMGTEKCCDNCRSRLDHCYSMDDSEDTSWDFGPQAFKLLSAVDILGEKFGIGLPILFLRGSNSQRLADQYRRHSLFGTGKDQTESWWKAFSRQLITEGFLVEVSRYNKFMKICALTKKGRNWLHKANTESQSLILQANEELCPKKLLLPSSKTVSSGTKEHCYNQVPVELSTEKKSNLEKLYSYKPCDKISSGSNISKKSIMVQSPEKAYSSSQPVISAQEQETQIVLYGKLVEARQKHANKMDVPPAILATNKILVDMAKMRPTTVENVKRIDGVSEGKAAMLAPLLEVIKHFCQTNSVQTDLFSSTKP
Outline: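 DNA-dependent ATPase activity was measured by ADP-Glo luminescent ADP detection after a 30-min room-temperature reaction. The reaction contained 10 nM WRN (residues N517-P1238), 0.2 nM FLAP26 and 300 µM ATP at pH 7.5 with 2 mM MgCl2. Compounds were tested as 10-point half-log series in duplicate; IC50 values are geometric means from at least two independent experiments.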

GI50 [1] [nM] | GI50 [2] [nM] | IC50 [3] [nM] | SMILES
50 | > 10000 | 70 | CCc1cc(C)c(NC(=O)Cn2c(CC)c(N3CCN(C(=O)c4ncccc4O)CC3)c(=O)n3nc(C4=CCOCC4)nc23)cc1Cl [Example 104, N-(5-chloro-4-ethyl-2-methylphenyl)-2-(2-(3,6-dihydro-2H-pyran-4-yl)-5-ethyl-6-(4-(3-hydroxypicolinoyl)piperazin-1-yl)-7-oxo-[1,2,4]triazolo[1,5-a]pyrimidin-4(7H)-yl)acetamide]
1130 | > 10000 | 200 | Cc1cc(Cl)ccc1NC(=O)Cn1c(C)c(N2CCN(C(=O)c3ncccc3O)CC2)c(=O)n2nc(C3=CCOCC3)nc12 [Example 105, N-(4-chloro-2-methylphenyl)-2-(2-(3,6-dihydro-2H-pyran-4-yl)-6-(4-(3-hydroxypicolinoyl)piperazin-1-yl)-5-methyl-7-oxo-[1,2,4]triazolo[1,5-a]pyrimidin-4(7H)-yl)acetamide]
110 | > 10000 | 60 | CCc1c(N2CCN(C(=O)c3ncnc(C)c3O)CC2)c(=O)n2nc(C3=CCOCC3)nc2n1CC(=O)Nc1ccc(Br)cc1Cl [Example 106, N-(4-bromo-2-chlorophenyl)-2-(2-(3,6-dihydro-2H-pyran-4-yl)-5-ethyl-6-(4-(5-hydroxy-6-methylpyrimidine-4-carbonyl)piperazin-1-yl)-7-oxo-[1,2,4]triazolo[1,5-a]pyrimidin-4(7H)-yl)acetamide]
100 | > 10000 | 50 | CCc1c(N2CCN(C(=O)c3ncnc(C)c3O)CC2)c(=O)n2nc(C3=CCOCC3)nc2n1CC(=O)Nc1ccc(C(F)(F)F)cc1F [Example 107, 2-(2-(3,6-dihydro-2H-pyran-4-yl)-5-ethyl-6-(4-(5-hydroxy-6-methylpyrimidine-4-carbonyl)piperazin-1-yl)-7-oxo-[1,2,4]triazolo[1,5-a]pyrimidin-4(7H)-yl)-N-(2-fluoro-4-(trifluoromethyl)phenyl)acetamide]
90 | > 10000 | 80 | CCc1c(N2CCN(C(=O)c3ncnc(C)c3O)CC2)c(=O)n2nc(C3=CCOCC3)nc2n1CC(=O)Nc1ccc(C(F)(F)F)cc1Br [Example 108, N-(2-bromo-4-(trifluoromethyl)phenyl)-2-(2-(3,6-dihydro-2H-pyran-4-yl)-5-ethyl-6-(4-(5-hydroxy-6-methylpyrimidine-4-carbonyl)piperazin-1-yl)-7-oxo-[1,2,4]triazolo[1,5-a]pyrimidin-4(7H)-yl)acetamide]
690 | > 10000 | 1180 | CCc1c(N2CCN(C(=O)c3ncccc3O)CC2)c(=O)n2nc(C3=CNCCC3)nc2n1CC(=O)Nc1ccc(C(F)(F)F)cc1C [Example 109, 2-(5-ethyl-6-(4-(3-hydroxypicolinoyl)piperazin-1-yl)-7-oxo-2-(1,4,5,6-tetrahydropyridin-3-yl)-[1,2,4]triazolo[1,5-a]pyrimidin-4(7H)-yl)-N-(2-methyl-4-(trifluoromethyl)phenyl)acetamide]
1210 | > 10000 | 360 | CCc1c(N2CCN(C(=O)c3ncccc3O)CC2)c(=O)n2nc(C3=CCCCN3)nc2n1CC(=O)Nc1ccc(C(F)(F)F)cc1C [Example 110, 2-(5-ethyl-6-(4-(3-hydroxypicolinoyl)piperazin-1-yl)-7-oxo-2-(1,4,5,6-tetrahydropyridin-2-yl)-[1,2,4]triazolo[1,5-a]pyrimidin-4(7H)-yl)-N-(2-methyl-4-(trifluoromethyl)phenyl)acetamide]
7940 | > 10000 | 510 | CCc1c(N2CCN(C(=O)c3ncccc3O)CC2)c(=O)n2nc(C3=CCNCC3)nc2n1CC(=O)Nc1ccc(C(F)(F)F)cc1C [Example 112, 2-(5-ethyl-6-(4-(3-hydroxypicolinoyl)piperazin-1-yl)-7-oxo-2-(1,2,3,6-tetrahydropyridin-4-yl)-[1,2,4]triazolo[1,5-a]pyrimidin-4(7H)-yl)-N-(2-methyl-4-(trifluoromethyl)phenyl)acetamide]

Further lines, the molecule ahead of its results:

SMILES | GI50 [1] [nM] | GI50 [2] [nM] | IC50 [3] [nM]
CCc1c(N2CCN(C(=O)c3ncnc(C)c3O)CC2)c(=O)n2nc(C3=CCOCC3)nc2n1CC(=O)Nc1ccc(C(F)(F)F)c(F)c1C [Example 93, 2-(2-(3,6-dihydro-2H-pyran-4-yl)-5-ethyl-6-(4-(5-hydroxy-6-methylpyrimidine-4-carbonyl)piperazin-1-yl)-7-oxo-[1,2,4]triazolo[1,5-a]pyrimidin-4(7H)-yl)-N-(3-fluoro-2-methyl-4-(trifluoromethyl)phenyl)acetamide] | 70 | > 10000 | 80
CCc1c(N2CCN(C(=O)c3ncccc3O)CC2)c(=O)n2nc(C3=CCOCC3)nc2n1CC(=O)Nc1cc(F)c(C(F)(F)F)cc1C [Example 94, 2-(2-(3,6-dihydro-2H-pyran-4-yl)-5-ethyl-6-(4-(3-hydroxypicolinoyl)piperazin-1-yl)-7-oxo-[1,2,4]triazolo[1,5-a]pyrimidin-4(7H)-yl)-N-(5-fluoro-2-methyl-4-(trifluoromethyl)phenyl)acetamide] | 50 | > 10000 | 40
CCc1c(N2CCN(C(=O)c3nccc(Cl)c3O)CC2)c(=O)n2nc(C3=CCOCC3)nc2n1CC(=O)Nc1cc(F)c(C(F)(F)F)cc1C [Example 95, 2-(6-(4-(4-chloro-3-hydroxypicolinoyl)piperazin-1-yl)-2-(3,6-dihydro-2H-pyran-4-yl)-5-ethyl-7-oxo-[1,2,4]triazolo[1,5-a]pyrimidin-4(7H)-yl)-N-(5-fluoro-2-methyl-4-(trifluoromethyl)phenyl)acetamide] | 60 | > 10000 | 50
CCc1c(N2CCN(C(=O)c3ncccc3O)CC2)c(=O)n2nc(C3=CCOCC3)nc2n1CC(=O)Nc1ccc(C(F)(F)F)cc1Cl [Example 96, N-(2-chloro-4-(trifluoromethyl)phenyl)-2-(2-(3,6-dihydro-2H-pyran-4-yl)-5-ethyl-6-(4-(3-hydroxypicolinoyl)piperazin-1-yl)-7-oxo-[1,2,4]triazolo[1,5-a]pyrimidin-4(7H)-yl)acetamide] | 60 | > 10000 | 60
CCc1c(N2CCN(C(=O)c3ncc(C)c(F)c3O)CC2)c(=O)n2nc(C3=CCOCC3)nc2n1CC(=O)Nc1ccc(C(F)(F)F)cc1Cl [Example 97, N-(2-chloro-4-(trifluoromethyl)phenyl)-2-(2-(3,6-dihydro-2H-pyran-4-yl)-5-ethyl-6-(4-(4-fluoro-3-hydroxy-5-methylpicolinoyl)piperazin-1-yl)-7-oxo-[1,2,4]triazolo[1,5-a]pyrimidin-4(7H)-yl)acetamide] | 70 | > 10000 | 80
CCc1c(N2CCN(C(=O)c3nccc(OC(F)(F)F)c3O)CC2)c(=O)n2nc(C3=CCOCC3)nc2n1CC(=O)Nc1ccc(C(F)(F)F)cc1Cl [Example 98, N-(2-chloro-4-(trifluoromethyl)phenyl)-2-(2-(3,6-dihydro-2H-pyran-4-yl)-5-ethyl-6-(4-(3-hydroxy-4-(trifluoromethoxy)picolinoyl)piperazin-1-yl)-7-oxo-[1,2,4]triazolo[1,5-a]pyrimidin-4(7H)-yl)acetamide] | 140 | > 10000 | 40
CCc1c(N2CCN(C(=O)c3ncccc3O)CC2)c(=O)n2nc(C3=CCOCC3)nc2n1CC(=O)Nc1cc(F)c(C(F)(F)F)nc1Cl [Example 99, N-(2-chloro-5-fluoro-6-(trifluoromethyl)pyridin-3-yl)-2-(2-(3,6-dihydro-2H-pyran-4-yl)-5-ethyl-6-(4-(3-hydroxypicolinoyl)piperazin-1-yl)-7-oxo-[1,2,4]triazolo[1,5-a]pyrimidin-4(7H)-yl)acetamide] | 280 | > 10000 | 180
CCc1c(N2CCN(C(=O)c3ncnc(C)c3O)CC2)c(=O)n2nc(C3=CCOCC3)nc2n1CC(=O)Nc1ccc(S(F)(F)(F)(F)F)cc1C [Example 100, 2-(2-(3,6-dihydro-2H-pyran-4-yl)-5-ethyl-6-(4-(5-hydroxy-6-methylpyrimidine-4-carbonyl)piperazin-1-yl)-7-oxo-[1,2,4]triazolo[1,5-a]pyrimidin-4(7H)-yl)-N-(2-methyl-4-(pentafluorosulfanyl)phenyl)acetamide] | 30 | > 10000 | 60
CCc1c(N2CCN(C(=O)c3ncccc3O)CC2)c(=O)n2nc(C3=CCOCC3)nc2n1CC(=O)Nc1ccc(Cl)cc1Cl [Example 101, N-(2,4-dichlorophenyl)-2-(2-(3,6-dihydro-2H-pyran-4-yl)-5-ethyl-6-(4-(3-hydroxypicolinoyl)piperazin-1-yl)-7-oxo-[1,2,4]triazolo[1,5-a]pyrimidin-4(7H)-yl)acetamide] | 210 | > 10000 | 100
CCc1c(N2CCN(C(=O)c3ncccc3O)CC2)c(=O)n2nc(C3=CCOCC3)nc2n1CC(=O)Nc1cc(Cl)c(C(F)(F)F)nc1C [Example 102, N-(5-chloro-2-methyl-6-(trifluoromethyl)pyridin-3-yl)-2-(2-(3,6-dihydro-2H-pyran-4-yl)-5-ethyl-6-(4-(3-hydroxypicolinoyl)piperazin-1-yl)-7-oxo-[1,2,4]triazolo[1,5-a]pyrimidin-4(7H)-yl)acetamide] | 170 | > 10000 | 90
CCc1c(N2CCN(C(=O)c3ncccc3O)CC2)c(=O)n2nc(C3=CCOCC3)nc2n1CC(=O)Nc1cc(C(F)(F)F)c(Cl)cc1C [Example 103, N-(4-chloro-2-methyl-5-(trifluoromethyl)phenyl)-2-(2-(3,6-dihydro-2H-pyran-4-yl)-5-ethyl-6-(4-(3-hydroxypicolinoyl)piperazin-1-yl)-7-oxo-[1,2,4]triazolo[1,5-a]pyrimidin-4(7H)-yl)acetamide] | 250 | > 10000 | 100
